Data reported in patent US7704525B2, “Lipid microparticles by cryogenic micronization” (Ares Trading S.A., priority 2000, dated 2010).

Assay: Partition coefficient octanol/water of Antide
Format: physicochemical
Settings: 24 hours stirring at room temperature, RP-HPLC
Protocol: Partition coefficient: it was determined using octanol as organic phase and water as hydrophilic phase. The two phases were first saturated with each other for 24 hours at room temperature. Antide was then dissolved in the water phase at a concentration well below saturation. An equal volume of organic phase was subsequently added to the water phase and the mixture was kept under stirring for 24 hours at room temperature. Antide concentration in the two phases was determined by RP-HPLC and the partition coefficient was obtained from the ratio between the drug concentration in organic and water phase.
The resulting octanol/water coefficient was 8.56·10^−2

## N—Ac-D-2-NaI, D-pCiPhe, D-3-Pal, Ser, NicLys, D-NicLys, Leu, Ilys, Pro, D-Ala, NH2 [Antide]
  octanol/water coefficient: 8.56·10^−2
